According to US20230339952A1, “MACROCYCLIC HETEROCYCLES AND USES THEREOF” (Kumquat Biosciences Inc., priority 2022, published 2023):
Like-named read-outs stand apart in the source and are kept apart here.

How the values were obtained:
SOS1 = SOS1 (Homo sapiens (Human), UniProt Q07889); test: Ras-SOS interaction assay (HTRF), K-Ras G13D utilized; format: binding
[1] = tested on: NCI-H1975 (ATCC CRL-5908) cell line comprising an EGFR T790M L858R double mutation; test: EGFR-SOS cellular inhibition assay (CellTiter-Glo cell proliferation); format: cell-based; conditions: Homo sapiens
Description: A CellTiter-Glo (CTG) luminescent based assay (Promega) is used to assess growth of the cells, as a measurement of the ability of the compounds herein to inhibit EGFR signaling in the cells. […] The day after plating, cells are treated with a dilution series (e.g., a 9 point 3-fold dilution series) of the compounds herein (e.g., approximately 125 μL final volume per well).

[2] = tested on: MIA PaCa-2 cells (K-Ras G12C); test: Ras-SOS cellular growth inhibition assay (CellTiter-Glo); conditions: Homo sapiens, MIA PaCa-2, 120 h, read-out: IC50 in inhibiting MIA PaCa-2 cell growth
Description: A CellTiter-Glo (CTG) luminescent based assay (Promega) is used to assess growth of the cells, as a measurement of the ability of the compounds herein to inhibit Ras signaling in the cells. […] The day after plating, cells are treated with a dilution series (e.g., a 9 point 3-fold dilution series) of the compounds herein (e.g., approximately 125 μL final volume per well). Cell viability can be monitored (e.g., approximately 5 days later) according to the manufacturer's recommended instructions, where the CellTiter-Glo reagent is added (e.g., approximately 65 μL), vigorously mixed, covered, and placed on a plate shaker (e.g., approximately for 20 min) to ensure sufficient cell lysis prior to assessment of luminescent signal. The IC50 values are determined using the four-parameter fit. The resulting IC50 value is a measurement of the ability of the compounds herein to reduce cell growth of Ras-driven cells as representative tumor cells.

[3] = Mouse oral exposure (% F); format: in vivo; conditions: plasma, female CD-1 mice, 10 mg/kg oral vs 2 mg/kg IV, single dosing
Description: A pharmacokinetic profile for a test compound is assessed by single dosing in female CD-1 mice. […] One set of animals is dosed intravenous (IV) with test compound, 2 mg/kg in 20% HP-beta-CD or 20% Captisol, pH adjusted to −5-6 by citric acid at 10 mL/kg. Time of blood sampling is 5 minutes, 15 minutes, 30 minutes, 90 minutes, 360 minutes, and 24 hours following IV dosing. […] Oral dosing solution concentration is 1 mg/mL test compound and 10 mL/kg. Time of blood sampling is 15 minutes, 30 minutes, 90 minutes, 180 minutes, 360 minutes and 24 hours following oral (po) dosing. Blood samples (˜0.1 mL/sample) are collected via submandibular facial vein and placed in tubes containing EDTA-K2 and stored on ice until centrifuged. The blood samples are centrifuged at approximately 6800 g for 6 minutes at 2-8° C. and the resulting plasma is separated and stored frozen at approximately −80° C. Plasma samples are analyzed using an Agilent Technologies 6430 Triple Quad LC/MS system, following the manufacturer instructions. All the analytes are detected with positive-mode electrospray ionization (ES+). […] Based on the time course sampling, an area under the curve is calculated for the oral dose group and the intravenous dose group. Percentage mouse bioavailability is calculated based on equation 6. […]

[4] = K-Ras G13D, read-out: SOS1 IC50
[5] = 120 h, NCI-H1975 cell proliferation, approximately 5 days, read-out: H1975 IC50
[6] = K-Ras G13D, read-out: IC50 value against SOS1
[7] = NCI-H1975, EGFR T790M L858R double mutation, read-out: IC50 in inhibiting growth of NCI-H1975 cell line
[8] = comparative values (Table 3), read-out: SOS1 IC50

SOS1, sequence (Q07889 564-1049): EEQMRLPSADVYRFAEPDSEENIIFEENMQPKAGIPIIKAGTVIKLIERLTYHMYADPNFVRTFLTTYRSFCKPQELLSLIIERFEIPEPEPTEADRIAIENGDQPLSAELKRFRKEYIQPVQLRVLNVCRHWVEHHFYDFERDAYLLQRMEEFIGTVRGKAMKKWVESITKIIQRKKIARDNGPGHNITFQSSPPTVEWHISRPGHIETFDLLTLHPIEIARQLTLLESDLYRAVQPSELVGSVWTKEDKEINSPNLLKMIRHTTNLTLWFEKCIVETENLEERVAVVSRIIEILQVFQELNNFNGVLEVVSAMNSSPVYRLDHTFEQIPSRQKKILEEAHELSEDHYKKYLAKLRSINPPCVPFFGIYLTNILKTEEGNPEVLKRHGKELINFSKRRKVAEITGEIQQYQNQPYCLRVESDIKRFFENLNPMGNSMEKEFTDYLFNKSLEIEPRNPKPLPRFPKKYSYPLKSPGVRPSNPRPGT

| SMILES | ring closure, yield of all isomers (from C=CCCCCCn1c(=O)c(C2(C#N)CC2)cc2c(N[C@H](C)c3cccc(C(F)(F)C4CCN(CC=C)CC4)c3)ncnc21, rcm bond, Grubbs II catalyst, DCM, 1.41 mM, 40.0 °C) [%] | ring closure, yield of all isomers (from C=CCCCCn1c(=O)c(C2CCS(=O)(=O)CC2)cc2c(N[C@H](C)c3cccc(C(F)(F)C4CCN(CC=C)CC4)c3)nc(C)nc21, rcm bond, Grubbs II, DCM, 4.48 mM, 25.0 °C, 16.0 h) [%] | ring closure, yield of all isomers (from COc1cc2nc(C)nc(N[C@H](C)c3ccc(-c4ccccc4C=O)s3)c2cc1OCCOCCOCCOCCOCCN, amine bond, NaBH3CN, DCM, 28.4 mM, 25.0 °C, 16.0 h, 2 steps) [%] | IC50 (SOS1; [4]) [µM] | ring closure, yield of all isomers (from C[C@@H](Nc1ncnc2c1cc(C1(C#N)CCS(=O)(=O)CC1)c(=O)n2CCCCCCC=O)c1cccc(C(F)(F)C2CCNCC2)c1F, amine bond, NaBH3CN, MeOH, 0.73 mM, 25.0 °C, 16.5 h) [%] | IC50 [1, 5] [µM] | IC50 (SOS1; [6]) [µM] | IC50 [2] [µM] | IC50 [1, 7] [µM] | IC50 (SOS1; [8]) [µM] | bioavailability [3] [%] |
| --- | --- | --- | --- | --- | --- | --- | --- | --- | --- | --- | --- |
| C[C@H]1Nc2ncnc3c2cc(C2(C#N)CC2)c(=O)n3CCCCCC=CCN2CCC(CC2)C(F)(F)c2cccc1c2 | 18.5 | – | – | – | – | – | – | – | – | – | – |
| Cc1nc2c3cc(C4CCS(=O)(=O)CC4)c(=O)n(c3n1)CCCCC=CCN1CCC(CC1)C(F)(F)c1cccc(c1)[C@@H](C)N2 | – | 64.2 | – | – | – | – | – | – | – | – | – |
| COc1cc2nc(C)nc3c2cc1OCCOCCOCCOCCOCCNCc1ccccc1C1=CC=C(S1)[C@@H](C)N3 [Compound 56, (R)-5^7-methoxy-5^2,3-dimethyl-6,9,12,15,18-pentaoxa-4,21-diaza-5(4,6)-quinazolina-2(2,5)-thiophena-1(1,2)-benzenacyclodocosaphane] | – | – | 59.3 | 0.1 to 5 | – | – | – | – | – | – | – |
| C[C@H]1Nc2ncnc3c2cc(C2(C#N)CCS(=O)(=O)CC2)c(=O)n3CCCCCCCN2CCC(CC2)C(F)(F)c2cccc1c2F [Compound 112, 4-((4R)-3^2,2,2-trifluoro-4-methyl-6^7-oxo-6^7,6^8-dihydro-5-aza-6(4,8)-pyrido[2,3-d]pyrimidina-1(4,1)-piperidina-3(1,3)-benzenacyclotridecaphane-6^6-yl)tetrahydro-2H-thiopyran-4-carbonitrile 1,1-dioxide] | – | – | – | < 0.1 | 28.2 | < 1 | – | – | – | – | – |
| Cc1nc2c3cc(C4(C#N)CC4)c(=O)n(c3n1)CCCCCCCN1CCC(CC1)C(F)(F)c1cccc(c1F)[C@@H](C)N2 [Compound 167, 1-((4R)-3^2,2,2-trifluoro-6^2,4-dimethyl-6^7-oxo-6^7,6^8-dihydro-5-aza-6(4,8)-pyrido[2,3-d]pyrimidina-1(4,1)-piperidina-3(1,3)-benzenacyclotridecaphane-6^6-yl)cyclopropane-1-carbonitrile] | – | – | – | < 0.1 | – | < 1 | < 0.05 | < 1 | < 0.5 | – | – |
| Cc1nc2c3cc(C4(C#N)CC4)c(=O)n(c3n1)CCC/C=C\CN1CCC(CC1)C(F)(F)c1cccc(c1F)[C@@H](C)N2 [Compound 170, 1-((4R,Z)-3^2,2,2-trifluoro-6^2,4-dimethyl-6^7-oxo-6^7,6^8-dihydro-5-aza-6(4,8)-pyrido[2,3-d]pyrimidina-1(4,1)-piperidina-3(1,3)-benzenacyclododecaphan-10-en-6^6-yl)cyclopropane-1-carbonitrile] | – | – | – | < 0.1 | – | < 1 | < 0.05 | < 1 | < 0.5 | – | – |
| Cc1nc2c3cc(C4(C#N)CC4)c(=O)n(c3n1)CCCCC/C=C\CN1CCC(CC1)C(F)(F)c1cccc(c1)[C@@H](C)N2 [Compound 171, 1-((4R,Z)-2,2-difluoro-6^2,4-dimethyl-6^7-oxo-6^7,6^8-dihydro-5-aza-6(4,8)-pyrido[2,3-d]pyrimidina-1(4,1)-piperidina-3(1,3)-benzenacyclotetradecaphan-12-en-6^6-yl)cyclopropane-1-carbonitrile] | – | – | – | < 0.1 | – | < 1 | < 0.05 | < 1 | < 0.5 | – | – |
| Cc1nc2c3cc(C4CCS(=O)(=O)CC4)c(=O)n(c3n1)CCCCCCCN1CCC(CC1)C(F)(F)c1cccc(c1)[C@@H](C)N2 [Compound 173, (4R)-6^6-(1,1-dioxidotetrahydro-2H-thiopyran-4-yl)-2,2-difluoro-6^2,4-dimethyl-6^7,6^8-dihydro-5-aza-6(4,8)-pyrido[2,3-d]pyrimidina-1(4,1)-piperidina-3(1,3)-benzenacyclotridecaphan-6^7-one] | – | – | – | < 0.1 | – | < 1 | < 0.05 | < 1 | < 0.5 | – | – |
| Cc1nc2c3cc(C4CCS(=O)(=O)CC4)c(=O)n(c3n1)CCCC/C=C\CN1CCC(CC1)C(F)(F)c1cccc(c1)[C@@H](C)N2 [Compound 174, (4R,Z)-6^6-(1,1-dioxidotetrahydro-2H-thiopyran-4-yl)-2,2-difluoro-6^2,4-dimethyl-6^7,6^8-dihydro-5-aza-6 (4,8)-pyrido[2,3-d]pyrimidina-1(4,1)-piperidina-3(1,3)-benzenacyclotridecaphan-11-en-6^7-one] | – | – | – | < 0.1 | – | < 1 | < 0.05 | < 1 | < 0.5 | – | – |
| Cc1nc2c3cc(C4CCN(C(C)C)CC4)c(=O)n(c3n1)CCCC/C=C\CN1CCC(CC1)C(F)(F)c1cccc(c1)[C@@H](C)N2 [Compound 175, (4R,Z)-2,2-difluoro-6^6-(1-isopropylpiperidin-4-yl)-6^2,4-dimethyl-6^7,6^8-dihydro-5-aza-6(4,8)-pyrido[2,3-d]pyrimidina-1(4,1)-piperidina-3(1,3)-benzenacyclotridecaphan-11-en-6^7-one] | – | – | – | < 0.1 | – | < 1 | < 0.05 | < 1 | < 0.5 | 0.008 | ≥ 4 |
| C[C@H]1Nc2ncnc3c2cc(C2CCS(=O)(=O)CC2)c(=O)n3CCCOCCCCN2CC(C2)CC(F)(F)c2cccc1c2 [Compound 176, (3R)-1^6-(1,1-dioxidotetrahydro-2H-thiopyran-4-yl)-5,5-difluoro-3-methyl-1^7,1^8-dihydro-12-oxa-2-aza-1(4,8)-pyrido[2,3-d]pyrimidina-7(3,1)-azetidina-4(1,3)-benzenacyclopentadecaphan-1^7-one] | – | – | – | < 0.1 | – | < 1 | < 0.05 | – | < 0.5 | 0.007 | ≥ 4 |
